A word on the IC50: it is the concentration that inhibits the measured activity by half.

Holding throughout (format): cell-based, human
One series deals with IQGAP2-silenced cells. Briefly: Cell proliferation of IQGAP2-silenced cells after administration of inhibitors (CCK8). To be noted: IQGAP2-silenced HaCaT and HEK293 cells; each inhibitor in a dose of IC50; FIG. 7 and FIG. 8.
The next series deals with HEK293 cells. Briefly: Dose-dependent cell viability, preliminary IC50 experiment (HEK293). To be noted: FIG. 6.
A further series has as its system HaCaT cells. Put plainly: Dose-dependent cell viability, preliminary IC50 experiment (HaCaT). To be noted: FIG. 6.
The test system of series [1] is IQGAP2 gene. Put plainly: IQGAP2 silencing by shRNA, gene and protein expression (HEK293). To be noted: HEK293 cells; lentiviral transduction; 72 hours; FIG. 3. An excerpt: (§1) To verify whether the abnormal IQGAP2 affected cell proliferation, IQGAP2-silenced cells were constructed using an RNAi approach. Since TSC could affect the skin and kidney of the patients, human keratinocytes (HaCaT) cells and human embryonic kidney 293 (HEK 293) cells were chosen as cell models. The shRNA sequence was designed and constructed for the IQGAP2 gene (as shown in Table 1), and IQGAP2-silenced HaCaT cells and IQGAP2-silenced HEK293 cells were obtained by lentiviral transduction. Subsequently, the cell proliferation of IQGAP2-silenced cells was detected at 24, 48, and 72 hours by using Cell Counting Kit 8 (CCK8).
(§2) The results were shown in FIGS. 3 to 4, and FIG. 3 depicted the gene expression level of IQGAP2-silenced human keratinocytes cells and IQGAP2-silenced human embryonic kidney 293 cells at 72 hours. […] And Control represented a control group, shGFP represented the empty vector control group, sh IQ IQGAP2-1, sh IQ IQGAP2-2, and sh IQ IQGAP2-3 represented the corresponding shRNA-1 to shRNA-3 primer silencing groups (repeated in triplicate for each group), respectively, and GAPDH represented the internal reference gene.

For series [2], the system named is IQGAP2 gene. Put plainly: IQGAP2 silencing by shRNA, gene and protein expression (HaCaT). To be noted: HaCaT cells; lentiviral transduction; 72 hours; FIG. 3.
Description: as §1, §2

Description for IQGAP2-silenced cells: That is, the pathway was further determined by verifying whether the cell proliferation caused by IQGAP2 silencing can be alleviated by inhibiting the AKT activity and mTORC1 activity (key factors of the mTOR pathway) in IQGAP2-silenced cells with the inhibitors.
Then, HaCaT cells and HEK293 cells were administrated with each inhibitor in a dose of IC50.

For `O=c1[nH]c2ccccc2n1C1CCN(Cc2ccc(-c3nc4cc5[nH]cnc5cc4nc3-c3ccccc3)cc2)CC1` [AKT inhibitor VIII], the “cell proliferation of IQGAP2-silenced cells” value in the series on IQGAP2-silenced cells is given as “reduce the cell proliferation”. The IC50 was 12.5 µM in the series on HEK293 cells and 25 µM in the series with HaCaT cells. As for `CO[C@H]1C[C@@H]2CC[C@@H](C)[C@@](O)(O2)C(=O)C(=O)N2CCCC[C@H]2C(=O)O[C@H]([C@H](C)C[C@@H]2CC[C@@H](O)[C@H](OC)C2)CC(=O)[C@H](C)/C=C(\C)[C@@H](O)[C@@H](OC)C(=O)[C@H](C)C[C@H](C)/C=C/C=C/C=C/1C` [Rapamycin], the IC50 was 12.5 µM with HEK293 cells (Homo sapiens) and 50 µM in the series with HaCaT cells (Homo sapiens). Turning to “IQGAP2-shRNA-1: IQGAP2-silenced shRNA sequence 5′-GCTCCTACCTACTGCGAATAT-3′ (SEQ ID NO. 1) (GCUCCUACCUACUGCGAAUAU)”, the IQGAP2 silencing entry with IQGAP2 gene [1] is “optimum silencing”. For the molecule “IQGAP2-shRNA-3: IQGAP2-silenced shRNA sequence 5′-GCTCCAGATGGCTTTGATATC-3′ (SEQ ID NO. 3) (GCUCCAGAUGGCUUUGAUAUC)”, the IQGAP2 silencing result in the series on IQGAP2 gene [2] is “optimum silencing”.

These data come from patent publication US20250257401A1, “BIOMARKER FOR TUBEROUS SCLEROSIS COMPLEX WITH NO MUTATION IDENTIFIED IN TSC1 OR TSC2 GENE, AND USES THEREOF” (Guangzhou KingMed Transformative Medicine Institute Co., …, priority 2022, published 2025).
